According to patent US9040502B2, “Anti-XDR-TB drug, anti-MDR-TB drug, and combination anti-tuberculosis drug” (priority 2008, dated 2015):
Converted amounts (≈) assume the structure as drawn. Where two headings read alike, the source gives them in different places.

Tests used:
[1] = tested on: M. tuberculosis XDR-TB (0306-0206); type: in vivo, Mycobacterium tuberculosis in BALB/c mice; conditions: BALB/c mice, i.v. infection; s.c., 14 doses; CPZEN-45 6.3-200 mg/kg, SM 25-200 mg/kg; Day 30
[2] = tested on: M. tuberculosis MDR (RFP, INH); experiment: MIC, agar multiple dilution method (Test Example 2); type: cell-based; conditions: Mycobacterium tuberculosis, 336 h
[3] = tested on: M. tuberculosis MDR (RFP, INH, KM EB, TH, PAS, EVM); experiment: as above; type: cell-based; conditions: Mycobacterium tuberculosis, 336 h
[4] = tested on: M. tuberculosis MDR (RFP, INH, KM, SM EB, TH); experiment: as above; type: cell-based; conditions: Mycobacterium tuberculosis, 336 h
[5] = tested on: M. tuberculosis XDR (RFP, INH, KM EB, TH, PAS, EVM, LVFX); experiment: as above; type: cell-based; conditions: Mycobacterium tuberculosis, 336 h
[6] = tested on: Mycobacterium tuberculosis XDR-TB (0306-0206); type: cell-based; conditions: Ratio Method

Compound: CCCCc1ccc(NC(=O)C2=CCN(C)[C@@H]([C@H](O[C@@H]3O[C@H](CN)[C@@H](O)[C@H]3O)[C@H]3O[C@@H](n4ccc(=O)[nH]c4=O)[C@H](O)[C@@H]3O)C(=O)N2C)cc1 [CPZEN-45, (S)-2-{[(2S,3R,4S,5R)-(5-aminomethyl-3,4-dihydroxyoxolan-2-yl)oxy][(2S,3S,4R,5R)-5-(2,4-dioxo-1,2,3,4-tetrahydropyrimidin-1-yl)-3,4-dihydroxyoxolan-2-yl]-(S)-methyl}-N-(4-butylphenyl)-1,4-dimethyl-3-oxo-1H-1,4-diazepine-5-carboxamide]
- Antibacterial effects (number of tuberculosis bacteria in lungs, liver and spleen, FIGS. 3 to 5) [1]: antibacterial effects significantly higher than those of SM
- MIC [2]: 6.25 µg/mL (≈ 9.07 µM)
- MIC [3]: 6.25 µg/mL (≈ 9.07 µM)
- MIC [4]: 6.25 µg/mL (≈ 9.07 µM)
- MIC [5]: 6.25 µg/mL (≈ 9.07 µM)

Compound: N[C@@H]1CON=C1O [CS, cycloserine]
- Determination (drug sensitivity) ([6]; drug concentration 30 μg/mL): S

Compound: CC[C@@H](CO)NCCN[C@@H](CC)CO [EB, ethambutol]
- Determination (drug sensitivity) ([6]; drug concentration 2.5 μg/mL): R

Compound: NNC(=O)c1ccncc1 [INH, isonicotinic acid hydrazide]
- Determination (drug sensitivity) ([6]; drug concentration 1.0 μg/mL): R

Compound: NC[C@H]1O[C@H](O[C@H]2[C@H](O)[C@@H](O[C@H]3O[C@H](CO)[C@@H](O)[C@H](N)[C@H]3O)[C@H](N)C[C@@H]2N)[C@H](O)[C@@H](O)[C@@H]1O [KM, kanamycin]
- Determination (drug sensitivity) ([6]; drug concentration 20 μg/mL): R

Compound: C[C@H]1COc2c(N3CCN(C)CC3)c(F)cc3c(=O)c(C(=O)O)cn1c23 [LVFX, levofloxacin]
- Determination (drug sensitivity) ([6]; drug concentration 1.0 μg/mL): R

Compound: Nc1ccc(C(=O)O)c(O)c1 [PAS, para-amino-salicylic acid]
- Determination (drug sensitivity) ([6]; drug concentration 0.5 μg/mL): R

Compound: CO[C@H]1/C=C/O[C@@]2(C)Oc3c(C)c(O)c4c(O)c(c(/C=N/N5CCN(C)CC5)c(O)c4c3C2=O)NC(=O)/C(C)=C\C=C\[C@H](C)[C@H](O)[C@@H](C)[C@@H](O)[C@@H](C)[C@H](OC(C)=O)[C@@H]1C [RFP, rifampicin]
- Determination (drug sensitivity) ([6]; drug concentration 40 μg/mL): R
- MIC [2]: > 40 µg/mL
- MIC [3]: > 40 µg/mL
- MIC [4]: > 40 µg/mL
- MIC [5]: > 40 µg/mL

Compound: [H]/N=C(/N)N[C@H]1[C@H](O)[C@@H](O)[C@H](O[C@@H]2O[C@@H](C)[C@](O)(C=O)[C@H]2O[C@@H]2O[C@@H](CO)[C@H](O)[C@@H](O)[C@@H]2NC)[C@@H](N/C(N)=N\[H])[C@@H]1O [SM, streptomycin]
- Determination (drug sensitivity) ([6]; drug concentration 10 μg/mL): R
- Antibacterial effects (number of tuberculosis bacteria in lungs, liver and spleen, FIGS. 3 to 5) [1]: no antibacterial effects

Compound: CCc1cc(C(N)=S)ccn1 [TH, ethionamide]
- Determination (drug sensitivity) ([6]; drug concentration 20 μg/mL): R

Compound: enviomycin [EVM]
- Determination (drug sensitivity) ([6]; drug concentration 20 μg/mL): R
